Like-named read-outs stand apart in the source and are kept apart here.

Drawing on patent publication US20230062119A1, “USE OF BIOMARKERS IN IDENTIFYING PATIENTS THAT WILL BE RESPONSIVE TO TREATMENT WITH A PRMT5 INHIBITOR” (Merck Sharp & Dohme LLC, priority 2019, published 2023), this text covers EC50 for two molecules.

In test [1] the target is T1, Full-length (FL)-PRMT5-MEP50 enzyme complex (Homo sapiens, UniProt O14744).
T1 construct: Full-length (FL)-PRMT5-MEP50 enzyme complex (recombinant proteins from baculovirus-transfected Sf21 cells: FL-PRMT5; MW=73837 kDa and FL-MEP50; MW=38614); made in house; host or cells: baculovirus-transfected Sf21 insect cells
The test is described as follows: PRMT5-MEP50 Enzyme Methylation Assay. In kind it is biochemical. As to conditions: 1.0 nM PRMT5-MEP50, 75 nM biotinylated peptide, 15 μM SAM. Summed up: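 Compound was pre-incubated 60 min at 37°C with 1.0 nM enzyme and 15 μM SAM (final) in 50 mM Bicine pH 8.0, then 75 nM biotinylated H4R3(Me1) peptide was added and reacted 150 min; twenty-point 1:2 titration from 100000 nM, 1% DMSO. Formic acid quench; SAMDI mass spectrometry measured Me1-to-Me2 conversion, EC50 by 4- or 7-parameter regression.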

Test [2] relates to symmetric dimethylation of arginine (SDMA) of PRMT5 substrates in MCF-7 cells. The test is described as follows: PRMT5 Cell Target Engagement (TE) Assay. In kind it is cell-based. Particulars: Homo sapiens, MCF7, 72 h, treated for 3 days, nuclear SDMA by high content imaging, top concentration 10000 nM. An excerpt:
The PRMT5 TE assay is a biomarker assay for identifying compounds that inhibit symmetric dimethylation of arginine (SDMA) of PRMT5 substrates. The following substrates have been reported for PRMT5: Histone H2A and H4 R3, Histone H3 R2, Histone H3 R8, spliceosome Sm proteins, ribosomal protein RPS10, p53, FEN1, nucleoplasmin, nucleolin, EGFR and EBNA. The assay will focus on detecting symmetrically dimethylated nuclear proteins using high content imaging technology. Detection of the expression of symmetrically dimethylated nuclear proteins is through a mixture of primary rabbit monoclonal antibodies to SDMA (CST 13222), which in turn recognized by an Alexafluor 488 dye-conjugated anti-rabbit IgG secondary antibody. The IN Cell Analyzer 2200 or Opera-Phenix measures nuclear Alexafluor 488 fluorescent dye intensity that is directly related to the level of expression of symmetrically dimethylated nuclear proteins at the single cell level. Nuclear AF488 dye intensities are compared to the mean value for DMSO treated cells (MIN) to report percent of inhibition for each compound-treated well.
In this assay, the cell potency (EC50) of each compound was determined from a ten point (1:3 serial dilution; top compound concentration of 10000 nM) titration curve using the following outlined procedure. Each well of a BD falcon collagen coated black/clear bottom 384-well plate was seeded with 4000 MCF-7 cells in 30 μl media and allowed to attach for 5 hours. Media is ATCC-formulated Eagle's Minimum Essential Medium, Catalog No. 30-2003. The following components were added to the base medium: 0.01 mg/mL human recombinant insulin; fetal bovine serum to a final concentration of 10%. Additional 30 µl of media containing 2× compounds were added to each well. Cells were treated for 3 days in 37° C. CO2 incubator. On day 3, cells were fixed with Cytofix, permeabilized with 0.4% Triton-X-100/Cytofix, and washed with D-PBS without Ca/Mg. Cells were blocked with Licor Odessey blocking reagent for 1 hour at room temperature, followed by incubation with anti-SDMA (1:1000) antibody at 4° C. overnight. 1° antibody was removed, followed by three washings with DPBS without Ca/Mg and 0.05% Tween20. Hoechst (5 μg/mL), Cell Mask deep stain (1:2000) and Alexa488-conjugated goat anti-rabbit IgG (2 μg/mL) was added for 1 hour at room temperature. A final washing step (three washes) was performed before sealing plate for imaging on In Cell Analyzer 2200 or Opera-Phenix. Images from analyzer were uploaded to Columbus for image analysis. IC50 values were determined by 4 parameters robust fit of percent fluorescence units vs. (Log 10) compound concentrations.

Where [3] appears, read: one EC50: 4 parameters single site sigmoidal model, EC50 1: first value of 7 parameters biphasic model, read-out: Enzyme Methylation Assay (EC50 or EC50 1).

T1 sequence (O14744 whole entry): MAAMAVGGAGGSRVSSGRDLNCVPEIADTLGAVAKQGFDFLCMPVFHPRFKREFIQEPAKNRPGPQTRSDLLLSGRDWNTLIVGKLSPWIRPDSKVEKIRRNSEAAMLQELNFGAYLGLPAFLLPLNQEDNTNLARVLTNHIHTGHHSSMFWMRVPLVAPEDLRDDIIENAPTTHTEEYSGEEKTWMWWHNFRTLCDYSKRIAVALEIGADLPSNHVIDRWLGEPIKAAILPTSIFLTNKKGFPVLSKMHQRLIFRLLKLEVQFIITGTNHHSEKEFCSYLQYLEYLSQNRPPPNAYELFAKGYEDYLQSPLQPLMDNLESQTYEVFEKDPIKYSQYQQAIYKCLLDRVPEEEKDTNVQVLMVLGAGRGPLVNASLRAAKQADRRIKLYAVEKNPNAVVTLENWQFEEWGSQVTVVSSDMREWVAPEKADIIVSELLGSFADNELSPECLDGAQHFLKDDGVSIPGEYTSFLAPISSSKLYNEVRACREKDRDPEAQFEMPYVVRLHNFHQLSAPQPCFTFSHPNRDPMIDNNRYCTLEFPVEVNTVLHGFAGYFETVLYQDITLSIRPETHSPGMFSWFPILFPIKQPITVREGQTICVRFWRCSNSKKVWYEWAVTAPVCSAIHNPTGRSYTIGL
T1 sequence (Q9BQA1 whole entry partner): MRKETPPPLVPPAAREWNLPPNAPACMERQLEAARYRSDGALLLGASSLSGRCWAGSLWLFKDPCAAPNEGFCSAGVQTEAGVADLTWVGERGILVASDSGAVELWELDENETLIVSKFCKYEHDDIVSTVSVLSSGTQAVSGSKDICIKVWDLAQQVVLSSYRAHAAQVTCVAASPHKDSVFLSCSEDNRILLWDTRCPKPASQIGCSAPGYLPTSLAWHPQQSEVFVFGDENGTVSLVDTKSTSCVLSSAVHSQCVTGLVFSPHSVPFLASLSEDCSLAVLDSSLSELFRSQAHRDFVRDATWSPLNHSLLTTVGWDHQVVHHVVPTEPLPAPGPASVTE

By EC50 is commonly meant the concentration at which the effect is half-maximal. Consider `Cc1cn([C@@H]2O[C@@H]3[C@@H](Oc4ccc5cc(F)c(N)nc5c4)CC[C@]3(O)[C@H]2O)c2ncnc(N)c12` [Example 65, (2R,3R,3aS,6S,6aR)-6-((2-amino-3-fluoroquinolin-7-yl)oxy)-2-(4-amino-5-methyl-7H-pyrrolo[2,3-d]pyrimidin-7-yl)hexahydro-3aH-cyclopenta[b]furan-3,3a-diol 2,2,2-trifluoroacetate], for which the EC50 in test [1] (setting [3]) was 0.2 nM; in test [1] (second EC50 of 7 parameters biphasic model, read-out: Enzyme Methylation Assay (EC50 2)), 200 nM; in test [2], 179 nM.

As to `Cc1cn([C@@H]2O[C@@H]3[C@@H](Oc4ccc5cc(Cl)c(N)nc5c4)CC[C@]3(O)[C@H]2O)c2ncnc(N)c12` [Example 64, (2R,3R,3aS,6S,6aR)-6-((2-amino-3-chloroquinolin-7-yl)oxy)-2-(4-amino-5-methyl-7H-pyrrolo[2,3-d]pyrimidin-7-yl)hexahydro-3aH-cyclopenta[b]furan-3,3a-diol 2,2,2-trifluoroacetate], the concentration for a half-maximal effect (EC50) in test [1] (setting [3]) was found to be 0.3 nM; in test [2], 16.2 nM.
